Values belong to the compound of their own block, whether it stands above or below them. The source made the active and inactive calls.
How the values were obtained:
A-375 [1] = test: MITF: Counter assay: A375 proliferation Measured in Cell-Based System Using Plate Reader - 2084-03_Inhibitor_Dose_DryPowder_Activity. [Related pubchem assays (depositor defined):AID488944]; format: functional; conditions: Homo sapiens
A-375 [2] = test: proliferation inhibition in MITF-low A375 cells – cell-based, cherry-pick samples, set 2, counter-screen for MITF modulator project, dose response (AID 540335); format: functional; conditions: Homo sapiens
Jurkat = test: SAR Analysis of small molecule inhibitors of […] specific antigen receptor-induced NF-kB activation in a Jurkat cell line using a luminescence assay - Set 3. [Related pubchem assays (depositor defined):AID435022, AID435025, AID465]; format: functional, cell-based; conditions: Homo sapiens
HEK293 [3] = test: SAR Analysis of small molecule inhibitors of B-cell specific antigen receptor-induced NF-kB activation in a HEK-293T cell line using a luminescence assay - Set 2. [Related pubchem assays (depositor defined):AID435022, AID435025, AID489021]; format: functional, cell-based; conditions: Homo sapiens
HEK293 [4] = test: HEK293T cell viability loss, resazurin readout – resazurin fluorescence, cytotoxicity control for NF-kB activator project, SAR follow-up (AID 493251); format: functional, cell-based; conditions: Homo sapiens
SUMO E1/E2 = SUMO E1/E2 (Homo sapiens, UniProt P63279+Q9UBE0+Q9UBT2); test: SAR analysis of SUMOylation using HTRF in an in-Vitro dose response assay. [Related pubchem assays (depositor defined):AID2006, AID2011, AID2018, AID2069, AID2658]; format: functional
[5] = biological target: T1, Voltage-gated N-type calcium channel alpha-1B subunit/Amyloid beta A4 precursor protein-binding family A member 1 (Homo sapiens, UniProt Q00975+Q02410); test: disruptors of Mint-PDZ/N-type channel peptide interaction – biochemical, HTRF, set 2, SAR follow-up (AID 434980); format: functional
[6] = biological target: T1, Voltage-gated N-type calcium channel alpha-1B subunit/Amyloid beta A4 precursor protein-binding family A member 1; test: disruptors of Mint-PDZ/N-type channel peptide interaction – biochemical, HTRF, SAR follow-up (AID 2489); format: functional
[7] = biological target: DNA repair protein RAD52 homolog (Homo sapiens, UniProt P43351); format: functional, biochemical
[8] = biological target: T2, Heat shock factor protein 1 (Mus musculus, UniProt P38532); test: decrease of HSF1-responsive luciferase luminescence – cell-based, NIH3T3, dose retest, confirmation (AID 2382); format: functional;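 also: NIH3T3 fibroblasts with HSF1-driven luciferase reporter stressed by proteasome inhibitor MG132; luminescence from HSF1-driven luciferase expression after 8 hours of MG132 stress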
T2 sequence (P38532 whole entry): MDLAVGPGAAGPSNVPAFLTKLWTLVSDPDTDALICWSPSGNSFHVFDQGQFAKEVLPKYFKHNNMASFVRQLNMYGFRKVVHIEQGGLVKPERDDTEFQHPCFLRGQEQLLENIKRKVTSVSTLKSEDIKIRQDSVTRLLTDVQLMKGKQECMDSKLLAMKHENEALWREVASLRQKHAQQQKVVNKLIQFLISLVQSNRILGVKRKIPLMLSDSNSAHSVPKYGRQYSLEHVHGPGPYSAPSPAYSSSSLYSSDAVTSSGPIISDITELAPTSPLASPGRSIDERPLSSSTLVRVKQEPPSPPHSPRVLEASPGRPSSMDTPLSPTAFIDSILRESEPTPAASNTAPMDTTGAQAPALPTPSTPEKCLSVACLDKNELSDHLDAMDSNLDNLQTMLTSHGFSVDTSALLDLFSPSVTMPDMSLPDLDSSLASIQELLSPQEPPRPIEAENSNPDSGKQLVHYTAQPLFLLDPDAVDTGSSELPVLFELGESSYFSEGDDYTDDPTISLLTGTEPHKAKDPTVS

Escherichia coli [9] = test: microbe, parasite or virus in culture
Phospholipase D1 = Phospholipase D1 (Homo sapiens, UniProt Q13393); test: cellular phospholipase D1 inhibition IC50 – cell-based, dose response (AID 602151); format: functional;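 also: cellular PLD1 assay in Calu-1 cells stimulated with PMA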
Phospholipase D2 = Phospholipase D2 (Homo sapiens, UniProt O14939); test: cellular phospholipase D2 inhibition IC50 – cell-based, dose response (AID 602147); format: functional;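 also: cellular assay in HEK293 cells overexpressing GFP-tagged PLD2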
[10] = biological target: T3, Sentrin-specific protease 8 (Homo sapiens, UniProt Q96LD8); test: inhibition of human SENP8 cleavage activity – biochemical, luminescence, SAR follow-up (AID 504501); format: functional
T3 sequence (Q96LD8 whole entry): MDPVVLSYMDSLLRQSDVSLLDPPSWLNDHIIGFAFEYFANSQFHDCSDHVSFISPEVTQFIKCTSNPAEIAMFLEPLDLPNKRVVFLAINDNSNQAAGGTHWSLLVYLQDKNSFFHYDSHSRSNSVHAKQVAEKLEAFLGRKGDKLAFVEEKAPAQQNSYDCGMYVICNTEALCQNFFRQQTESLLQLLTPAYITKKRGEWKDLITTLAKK

Caspase-3 = biological target: T4, Caspase-3 (Homo sapiens, UniProt P42574); test: SAR Analysis of small molecule inhibitors of Sentrin-specific proteases (SENPs) using a Caspase-3 Selectivity assay. [Related pubchem assays (depositor defined):AID2540, AID2599, AID434973, AID489001]; format: functional
T4 sequence (P42574 whole entry): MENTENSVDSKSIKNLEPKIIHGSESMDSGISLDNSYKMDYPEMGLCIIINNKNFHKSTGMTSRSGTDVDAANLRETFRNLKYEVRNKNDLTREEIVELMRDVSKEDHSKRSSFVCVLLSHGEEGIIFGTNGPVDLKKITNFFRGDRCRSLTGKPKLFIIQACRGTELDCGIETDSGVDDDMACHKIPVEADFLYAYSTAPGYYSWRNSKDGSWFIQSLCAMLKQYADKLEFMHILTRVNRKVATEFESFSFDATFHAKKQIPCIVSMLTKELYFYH

[11] = biological target: T5, Sentrin-specific protease 6 (Homo sapiens, UniProt Q9GZR1); test: SAR Analysis of small molecule inhibitors of Sentrin-specific protease 6 (SENP6) using a Luminescent assay. [Related pubchem assays (depositor defined):AID2582, AID2599]; format: functional
T5 sequence (Q9GZR1 whole entry): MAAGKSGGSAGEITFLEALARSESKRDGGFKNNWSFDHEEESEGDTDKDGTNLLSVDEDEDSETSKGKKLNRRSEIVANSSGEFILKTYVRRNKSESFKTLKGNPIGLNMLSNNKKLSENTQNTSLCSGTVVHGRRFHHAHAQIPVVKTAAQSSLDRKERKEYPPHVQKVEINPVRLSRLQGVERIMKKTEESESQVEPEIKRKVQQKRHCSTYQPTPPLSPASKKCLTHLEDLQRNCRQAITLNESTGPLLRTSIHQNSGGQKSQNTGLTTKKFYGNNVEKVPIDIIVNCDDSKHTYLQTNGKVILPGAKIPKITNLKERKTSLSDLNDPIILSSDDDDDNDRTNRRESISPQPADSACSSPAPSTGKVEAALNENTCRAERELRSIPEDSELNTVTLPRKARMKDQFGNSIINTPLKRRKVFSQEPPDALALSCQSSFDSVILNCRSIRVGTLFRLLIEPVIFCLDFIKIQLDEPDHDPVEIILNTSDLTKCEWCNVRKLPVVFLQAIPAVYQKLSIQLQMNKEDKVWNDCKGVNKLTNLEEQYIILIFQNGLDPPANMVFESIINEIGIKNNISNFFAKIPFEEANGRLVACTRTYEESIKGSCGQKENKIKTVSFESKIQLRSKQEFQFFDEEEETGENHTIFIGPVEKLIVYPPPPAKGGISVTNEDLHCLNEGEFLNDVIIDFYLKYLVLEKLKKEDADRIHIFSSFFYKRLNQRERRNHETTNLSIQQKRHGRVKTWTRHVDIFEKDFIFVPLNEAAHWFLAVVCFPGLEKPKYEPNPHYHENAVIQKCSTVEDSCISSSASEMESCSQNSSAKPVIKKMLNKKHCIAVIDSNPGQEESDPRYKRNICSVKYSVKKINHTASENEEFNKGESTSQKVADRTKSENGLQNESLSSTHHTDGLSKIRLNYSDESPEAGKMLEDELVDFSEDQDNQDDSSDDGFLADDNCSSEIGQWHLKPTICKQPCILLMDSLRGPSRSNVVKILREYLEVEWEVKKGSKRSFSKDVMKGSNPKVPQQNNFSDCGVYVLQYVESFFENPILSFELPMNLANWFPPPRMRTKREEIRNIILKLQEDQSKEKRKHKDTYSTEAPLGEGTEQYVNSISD

[12] = biological target: T6, Sentrin-specific protease 7 (Homo sapiens, UniProt Q9BQF6); test: inhibition of human SENP7 cleavage activity – biochemical, luminescence, SAR follow-up (AID 504497); format: functional
T6 sequence (Q9BQF6 whole entry): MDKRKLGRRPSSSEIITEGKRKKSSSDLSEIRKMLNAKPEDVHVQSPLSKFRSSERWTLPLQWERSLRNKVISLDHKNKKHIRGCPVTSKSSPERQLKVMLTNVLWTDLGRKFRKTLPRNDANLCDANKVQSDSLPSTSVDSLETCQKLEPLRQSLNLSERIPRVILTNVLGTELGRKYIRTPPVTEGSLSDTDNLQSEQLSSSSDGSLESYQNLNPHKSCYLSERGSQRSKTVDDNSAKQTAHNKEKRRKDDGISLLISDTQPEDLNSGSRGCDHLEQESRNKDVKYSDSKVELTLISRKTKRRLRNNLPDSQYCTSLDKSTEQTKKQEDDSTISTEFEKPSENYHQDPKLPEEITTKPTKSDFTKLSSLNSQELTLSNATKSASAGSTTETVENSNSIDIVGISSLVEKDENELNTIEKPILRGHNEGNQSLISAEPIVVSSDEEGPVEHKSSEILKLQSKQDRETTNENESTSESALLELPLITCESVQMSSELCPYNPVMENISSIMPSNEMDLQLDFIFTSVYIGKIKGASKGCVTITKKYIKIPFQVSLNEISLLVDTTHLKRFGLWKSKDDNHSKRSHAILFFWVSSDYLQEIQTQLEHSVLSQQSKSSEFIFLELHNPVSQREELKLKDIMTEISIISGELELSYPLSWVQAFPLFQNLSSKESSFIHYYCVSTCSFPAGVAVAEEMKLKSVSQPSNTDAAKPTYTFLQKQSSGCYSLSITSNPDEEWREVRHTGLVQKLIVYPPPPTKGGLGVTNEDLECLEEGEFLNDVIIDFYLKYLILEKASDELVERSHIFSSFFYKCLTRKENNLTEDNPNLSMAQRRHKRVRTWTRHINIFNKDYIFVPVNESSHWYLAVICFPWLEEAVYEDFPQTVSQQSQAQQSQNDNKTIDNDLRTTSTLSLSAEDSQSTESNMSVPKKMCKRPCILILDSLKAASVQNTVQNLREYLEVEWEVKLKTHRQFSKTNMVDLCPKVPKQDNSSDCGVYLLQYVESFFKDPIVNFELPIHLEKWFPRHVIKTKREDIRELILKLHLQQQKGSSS

Escherichia coli [13] = test: microbe, parasite or virus in culture; remark: listed apart in the source

Sequence of Phospholipase D2 (O14939 whole entry): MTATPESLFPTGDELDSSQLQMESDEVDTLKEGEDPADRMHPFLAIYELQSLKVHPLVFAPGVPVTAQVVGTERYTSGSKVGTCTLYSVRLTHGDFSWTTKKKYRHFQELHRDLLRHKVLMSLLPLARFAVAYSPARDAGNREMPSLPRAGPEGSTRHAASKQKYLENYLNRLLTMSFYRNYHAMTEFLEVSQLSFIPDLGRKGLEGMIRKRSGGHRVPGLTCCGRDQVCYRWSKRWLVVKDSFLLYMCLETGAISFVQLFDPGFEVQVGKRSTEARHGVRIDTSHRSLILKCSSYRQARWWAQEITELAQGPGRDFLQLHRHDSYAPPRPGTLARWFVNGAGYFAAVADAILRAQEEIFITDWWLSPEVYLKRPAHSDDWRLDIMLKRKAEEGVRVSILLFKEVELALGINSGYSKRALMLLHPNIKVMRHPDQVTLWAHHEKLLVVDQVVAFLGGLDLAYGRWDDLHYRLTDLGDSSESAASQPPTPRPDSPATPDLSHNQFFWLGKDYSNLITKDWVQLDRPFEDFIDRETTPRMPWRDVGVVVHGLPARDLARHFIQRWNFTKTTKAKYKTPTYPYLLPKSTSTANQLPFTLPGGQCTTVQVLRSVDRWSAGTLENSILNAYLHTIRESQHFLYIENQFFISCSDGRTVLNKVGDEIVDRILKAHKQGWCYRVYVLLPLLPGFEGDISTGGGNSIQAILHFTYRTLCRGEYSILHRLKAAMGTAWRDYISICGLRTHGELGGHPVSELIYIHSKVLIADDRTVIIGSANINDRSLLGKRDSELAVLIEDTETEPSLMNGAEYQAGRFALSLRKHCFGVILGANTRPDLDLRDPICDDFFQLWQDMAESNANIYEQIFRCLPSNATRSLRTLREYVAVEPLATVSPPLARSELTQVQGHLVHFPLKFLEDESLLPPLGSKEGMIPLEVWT
Sequence of Phospholipase D1 (Q13393 whole entry): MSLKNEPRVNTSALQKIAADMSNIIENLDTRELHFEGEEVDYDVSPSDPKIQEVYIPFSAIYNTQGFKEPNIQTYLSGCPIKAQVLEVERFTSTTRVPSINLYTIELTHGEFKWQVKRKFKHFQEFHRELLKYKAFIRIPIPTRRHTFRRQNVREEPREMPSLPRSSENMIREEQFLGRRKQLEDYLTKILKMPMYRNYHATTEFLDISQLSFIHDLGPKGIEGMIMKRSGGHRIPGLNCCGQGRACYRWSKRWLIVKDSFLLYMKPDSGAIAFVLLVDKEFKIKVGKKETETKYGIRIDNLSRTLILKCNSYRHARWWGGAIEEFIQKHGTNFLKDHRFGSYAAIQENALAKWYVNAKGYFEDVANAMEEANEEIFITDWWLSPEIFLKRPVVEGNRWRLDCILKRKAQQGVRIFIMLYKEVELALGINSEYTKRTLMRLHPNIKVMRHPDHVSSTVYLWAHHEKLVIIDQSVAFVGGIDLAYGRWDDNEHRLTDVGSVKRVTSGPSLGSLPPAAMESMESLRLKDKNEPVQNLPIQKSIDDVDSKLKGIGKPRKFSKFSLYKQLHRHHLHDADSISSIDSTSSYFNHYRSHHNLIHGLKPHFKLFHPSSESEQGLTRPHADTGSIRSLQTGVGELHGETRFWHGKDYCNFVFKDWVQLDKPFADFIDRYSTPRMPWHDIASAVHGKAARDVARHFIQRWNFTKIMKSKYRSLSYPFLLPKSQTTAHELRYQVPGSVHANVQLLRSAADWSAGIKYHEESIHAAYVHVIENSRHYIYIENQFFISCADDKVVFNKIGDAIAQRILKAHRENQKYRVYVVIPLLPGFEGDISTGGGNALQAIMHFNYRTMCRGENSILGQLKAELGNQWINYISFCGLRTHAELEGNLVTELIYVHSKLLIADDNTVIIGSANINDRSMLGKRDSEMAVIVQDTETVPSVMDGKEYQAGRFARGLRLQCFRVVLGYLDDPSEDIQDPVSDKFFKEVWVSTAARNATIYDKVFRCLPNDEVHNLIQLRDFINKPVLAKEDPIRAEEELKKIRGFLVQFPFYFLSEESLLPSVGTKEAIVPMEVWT
Sequence of SUMO E1/E2 (Q9UBE0 whole entry): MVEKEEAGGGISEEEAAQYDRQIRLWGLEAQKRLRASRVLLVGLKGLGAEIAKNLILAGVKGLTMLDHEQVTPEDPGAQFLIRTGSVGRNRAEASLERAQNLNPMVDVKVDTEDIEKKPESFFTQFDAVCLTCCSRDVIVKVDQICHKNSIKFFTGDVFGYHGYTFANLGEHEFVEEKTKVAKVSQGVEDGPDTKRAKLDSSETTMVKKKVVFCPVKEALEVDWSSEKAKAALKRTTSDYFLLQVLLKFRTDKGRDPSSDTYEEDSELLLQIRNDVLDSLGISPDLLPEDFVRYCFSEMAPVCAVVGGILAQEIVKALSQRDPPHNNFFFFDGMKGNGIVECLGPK
Sequence of SUMO E1/E2 (Q9UBT2 whole entry): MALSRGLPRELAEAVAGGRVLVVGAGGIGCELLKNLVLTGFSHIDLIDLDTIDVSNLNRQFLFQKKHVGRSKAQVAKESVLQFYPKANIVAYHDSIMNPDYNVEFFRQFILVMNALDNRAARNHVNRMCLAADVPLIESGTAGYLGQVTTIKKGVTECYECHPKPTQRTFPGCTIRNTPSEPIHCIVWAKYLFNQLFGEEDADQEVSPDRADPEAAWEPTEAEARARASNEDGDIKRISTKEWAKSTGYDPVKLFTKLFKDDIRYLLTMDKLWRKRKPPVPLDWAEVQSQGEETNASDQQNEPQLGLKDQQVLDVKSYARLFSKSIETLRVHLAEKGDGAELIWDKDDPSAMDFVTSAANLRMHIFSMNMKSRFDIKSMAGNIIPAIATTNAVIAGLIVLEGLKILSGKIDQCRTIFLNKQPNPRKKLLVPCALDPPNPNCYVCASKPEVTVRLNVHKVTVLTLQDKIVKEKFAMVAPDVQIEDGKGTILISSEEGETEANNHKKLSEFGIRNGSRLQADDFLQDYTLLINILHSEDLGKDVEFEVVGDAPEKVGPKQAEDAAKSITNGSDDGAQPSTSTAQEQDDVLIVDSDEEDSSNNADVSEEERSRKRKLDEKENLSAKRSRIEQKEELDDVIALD
Sequence of SUMO E1/E2 (P63279 whole entry): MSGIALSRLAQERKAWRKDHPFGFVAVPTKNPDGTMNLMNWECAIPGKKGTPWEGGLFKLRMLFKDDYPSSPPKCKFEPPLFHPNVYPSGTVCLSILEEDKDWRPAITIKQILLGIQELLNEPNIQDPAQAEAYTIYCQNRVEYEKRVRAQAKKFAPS
Sequence of DNA repair protein RAD52 homolog (P43351 whole entry): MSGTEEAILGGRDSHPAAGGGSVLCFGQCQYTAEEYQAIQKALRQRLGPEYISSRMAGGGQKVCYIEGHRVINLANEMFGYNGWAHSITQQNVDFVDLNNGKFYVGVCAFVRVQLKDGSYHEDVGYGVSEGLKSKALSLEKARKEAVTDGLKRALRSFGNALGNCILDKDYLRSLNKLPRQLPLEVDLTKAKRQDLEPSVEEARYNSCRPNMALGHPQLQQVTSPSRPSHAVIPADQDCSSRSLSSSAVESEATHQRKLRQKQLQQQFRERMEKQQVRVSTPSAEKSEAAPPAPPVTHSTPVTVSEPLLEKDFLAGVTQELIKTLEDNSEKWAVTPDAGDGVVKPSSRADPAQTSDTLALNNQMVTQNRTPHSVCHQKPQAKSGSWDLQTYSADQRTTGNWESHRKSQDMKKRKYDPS

Structure (SMILES): CCOc1ccc(N(CC(=O)Nc2ccc(OC)cc2)S(C)(=O)=O)cc1
AC50 (A-375 [1]): > 35 µM (active)
AC50 (A-375 [2]): > 35 µM (active)

Structure (SMILES): CCOc1ccc(-c2nc(CSCC(=O)NCCc3ccccc3)c(C)o2)cc1
IC50 (Jurkat): 55 µM (inactive)
IC50 (HEK293 [3]): 22.9 µM (inactive)
IC50 (HEK293 [4]): 35.6 µM (inactive)

IC50 (SUMO E1/E2): 2.01 µM (active)
IC50 [5]: 6 µM (active)
IC50 [6]: 5.19 µM (active)
AC50 [7]: 11.7 µM (active)
Structure (SMILES): CCN(CC)CCNC(=O)c1cc(-c2ccco2)nc2ccccc12

Structure (SMILES): CCN1CCN(CCCNc2[nH]cnc3ncnc2-3)CC1
EC50 [8]: > 195 µM (not active)
AC50 (Escherichia coli [9]): 74.1 µM (active)

Structure (SMILES): C[C@@H](CN1CCC(n2c(=O)[nH]c3ccccc32)CC1)NC(=O)c1ccco1
IC50 (Phospholipase D1): 0.19 µM (active)
IC50 (Phospholipase D2): 7.9 µM (active)

IC50 (Caspase-3): > 99 µM (inactive)
IC50 [11]: > 99 µM (inactive)
IC50 [12]: > 99 µM (inactive)
Structure (SMILES): COc1ccccc1CC(=O)Nc1ccc(-c2noc(/C=C/c3ccccc3)n2)cc1
IC50 [10]: > 99 µM (inactive)

Structure (SMILES): O=C(NCCN1CCC2(CC1)C(=O)NCN2c1ccc(Cl)cc1)c1ccc(Cl)cc1
IC50 (Phospholipase D1): 3.59 µM (active)
IC50 (Phospholipase D2): 0.635 µM (active)

Structure (SMILES): CC(C)CNC(=O)CCc1nc(-c2ccc(C(C)(C)C)cc2)no1
IC50 (Jurkat): 2.97 µM (active)
IC50 (HEK293 [3]): 1.51 µM (active)
IC50 (HEK293 [4]): > 80 µM (inactive)

Structure (SMILES): Cc1ccc(C2CC2/C(=N/O)c2ccc(F)cc2)cc1 (centres undefined)
AC50 (Escherichia coli [13]): 25.9 µM (active)
AC50 (Escherichia coli [9]): 53.3 µM (active)
